Laboratory results from the kinase profiling compilation of Christmann-Franck et al. (2016).

How the values were obtained:
Experiment in all cases: radiometric filter-binding kinase assay, Kinase HotSpot
Conditions in all cases: compound 0.5 µM; ATP 10 µM
HIPK1 (human) = HIPK1 (human) (UniProt Q86Z02)
MAPKAPK5 (human) = MAPKAPK5 (human) (UniProt Q8IW41)
PDGFRB (human) = PDGFRB (human) (UniProt P09619)
[1] = target: TYK2 JH1 catalytic (human) (UniProt P29597)
RPS6KA4 KD2 (human) = RPS6KA4 KD2 (human) (UniProt O75676)
PHKG2 (human) = PHKG2 (human) (UniProt P15735)
DSTYK (human) = DSTYK (human) (UniProt Q6XUX3)
PIM3 (human) = PIM3 (human) (UniProt Q86V86)
JAK2 JH1 JH2 (human) = JAK2 JH1 JH2 (human) (UniProt O60674)
BLK (human) = BLK (human) (UniProt P51451)
DAPK2 (human) = DAPK2 (human) (UniProt Q9UIK4)
MAP2K1 (human) = MAP2K1 (human) (UniProt Q02750)
ITK (human) = ITK (human) (UniProt Q08881)
FGFR1 (human) = FGFR1 (human) (UniProt P11362)
PDGFRA (human) = PDGFRA (human) (UniProt P16234)
FLT3 (human) = FLT3 (human) (UniProt P36888)
MAPK3 (human) = MAPK3 (human) (UniProt P27361)
PAK4 (human) = PAK4 (human) (UniProt O96013)
CDK5 CDK5R1 p25 (human) = CDK5 CDK5R1 p25 (human) (UniProt Q00535+Q15078)
JAK3 JH1 JH2 (human) = JAK3 JH1 JH2 (human) (UniProt P52333)
PTK2 (human) = PTK2 (human) (UniProt Q05397)
GRK7 (human) = GRK7 (human) (UniProt Q8WTQ7)
TXK (human) = TXK (human) (UniProt P42681)
PRKCE (human) = PRKCE (human) (UniProt Q02156)
NTRK1 (human) = NTRK1 (human) (UniProt P04629)
CAMK2B (human) = CAMK2B (human) (UniProt Q13554)
MELK (human) = MELK (human) (UniProt Q14680)
PAK3 (human) = PAK3 (human) (UniProt O75914)
CAMKK1 (human) = CAMKK1 (human) (UniProt Q8N5S9)
FES (human) = FES (human) (UniProt P07332)
CDK2 CCNA2 (human) = CDK2 CCNA2 (human) (UniProt P24941+P20248)
LIMK1 (human) = LIMK1 (human) (UniProt P53667)
SLK (human) = SLK (human) (UniProt Q9H2G2)
AKT1 (human) = AKT1 (human) (UniProt P31749)
MAPKAPK2 (human) = MAPKAPK2 (human) (UniProt P49137)
CSNK1G3 (human) = CSNK1G3 (human) (UniProt Q9Y6M4)
PRKD2 (human) = PRKD2 (human) (UniProt Q9BZL6)
STK11 (human) = STK11 (human) (UniProt Q15831)
DDR2 (human) = DDR2 (human) (UniProt Q16832)
TEC (human) = TEC (human) (UniProt P42680)
RPS6KA5 KD2 (human) = RPS6KA5 KD2 (human) (UniProt O75582)
PDPK1 (human) = PDPK1 (human) (UniProt O15530)
Sequence of PDPK1 (human) (O15530 whole entry, looked up): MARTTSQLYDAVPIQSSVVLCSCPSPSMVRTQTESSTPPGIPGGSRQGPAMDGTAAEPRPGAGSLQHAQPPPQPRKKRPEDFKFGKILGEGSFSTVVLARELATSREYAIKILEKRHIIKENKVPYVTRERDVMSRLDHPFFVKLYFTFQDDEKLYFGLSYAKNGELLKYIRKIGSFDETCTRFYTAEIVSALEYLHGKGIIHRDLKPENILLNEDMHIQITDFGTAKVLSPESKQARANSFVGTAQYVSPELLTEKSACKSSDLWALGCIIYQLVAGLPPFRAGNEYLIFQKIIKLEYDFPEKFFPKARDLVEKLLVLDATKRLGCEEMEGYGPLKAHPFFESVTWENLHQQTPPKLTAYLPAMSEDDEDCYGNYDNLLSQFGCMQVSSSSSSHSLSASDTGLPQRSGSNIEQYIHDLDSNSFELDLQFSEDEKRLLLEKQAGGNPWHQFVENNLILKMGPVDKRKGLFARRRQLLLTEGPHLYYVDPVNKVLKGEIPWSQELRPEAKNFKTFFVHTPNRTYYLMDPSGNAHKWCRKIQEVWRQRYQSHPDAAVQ

Sequence of MELK (human) (Q14680 whole entry, looked up): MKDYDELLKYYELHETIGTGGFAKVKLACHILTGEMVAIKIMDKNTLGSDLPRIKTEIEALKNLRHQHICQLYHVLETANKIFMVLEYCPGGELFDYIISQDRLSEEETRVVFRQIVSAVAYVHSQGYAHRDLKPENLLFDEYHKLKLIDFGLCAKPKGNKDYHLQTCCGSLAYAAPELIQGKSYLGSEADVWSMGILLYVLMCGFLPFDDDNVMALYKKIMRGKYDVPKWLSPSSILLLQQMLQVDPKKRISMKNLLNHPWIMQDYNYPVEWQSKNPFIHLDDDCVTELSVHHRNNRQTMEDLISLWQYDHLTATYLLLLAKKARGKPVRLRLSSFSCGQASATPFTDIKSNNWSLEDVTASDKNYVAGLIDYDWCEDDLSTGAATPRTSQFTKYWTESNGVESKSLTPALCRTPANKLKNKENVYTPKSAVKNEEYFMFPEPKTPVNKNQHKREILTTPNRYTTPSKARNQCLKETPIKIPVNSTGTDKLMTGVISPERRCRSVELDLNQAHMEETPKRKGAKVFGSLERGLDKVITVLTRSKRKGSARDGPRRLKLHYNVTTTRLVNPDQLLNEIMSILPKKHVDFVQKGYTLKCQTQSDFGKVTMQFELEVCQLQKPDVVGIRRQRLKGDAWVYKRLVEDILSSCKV
Sequence of AKT1 (human) (P31749 whole entry, looked up): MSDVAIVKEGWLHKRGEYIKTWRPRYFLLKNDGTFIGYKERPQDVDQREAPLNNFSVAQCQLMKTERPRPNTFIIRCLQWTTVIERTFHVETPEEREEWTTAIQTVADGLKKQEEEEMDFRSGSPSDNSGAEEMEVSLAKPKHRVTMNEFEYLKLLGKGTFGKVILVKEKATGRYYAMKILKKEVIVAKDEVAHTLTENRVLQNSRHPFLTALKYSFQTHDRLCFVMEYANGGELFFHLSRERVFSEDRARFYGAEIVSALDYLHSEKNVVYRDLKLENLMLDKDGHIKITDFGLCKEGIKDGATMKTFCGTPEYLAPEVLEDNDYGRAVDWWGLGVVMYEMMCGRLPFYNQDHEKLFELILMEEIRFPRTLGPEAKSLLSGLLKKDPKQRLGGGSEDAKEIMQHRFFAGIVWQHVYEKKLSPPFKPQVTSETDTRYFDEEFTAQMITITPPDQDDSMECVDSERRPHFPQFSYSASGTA
Sequence of HIPK1 (human) (Q86Z02 whole entry, looked up): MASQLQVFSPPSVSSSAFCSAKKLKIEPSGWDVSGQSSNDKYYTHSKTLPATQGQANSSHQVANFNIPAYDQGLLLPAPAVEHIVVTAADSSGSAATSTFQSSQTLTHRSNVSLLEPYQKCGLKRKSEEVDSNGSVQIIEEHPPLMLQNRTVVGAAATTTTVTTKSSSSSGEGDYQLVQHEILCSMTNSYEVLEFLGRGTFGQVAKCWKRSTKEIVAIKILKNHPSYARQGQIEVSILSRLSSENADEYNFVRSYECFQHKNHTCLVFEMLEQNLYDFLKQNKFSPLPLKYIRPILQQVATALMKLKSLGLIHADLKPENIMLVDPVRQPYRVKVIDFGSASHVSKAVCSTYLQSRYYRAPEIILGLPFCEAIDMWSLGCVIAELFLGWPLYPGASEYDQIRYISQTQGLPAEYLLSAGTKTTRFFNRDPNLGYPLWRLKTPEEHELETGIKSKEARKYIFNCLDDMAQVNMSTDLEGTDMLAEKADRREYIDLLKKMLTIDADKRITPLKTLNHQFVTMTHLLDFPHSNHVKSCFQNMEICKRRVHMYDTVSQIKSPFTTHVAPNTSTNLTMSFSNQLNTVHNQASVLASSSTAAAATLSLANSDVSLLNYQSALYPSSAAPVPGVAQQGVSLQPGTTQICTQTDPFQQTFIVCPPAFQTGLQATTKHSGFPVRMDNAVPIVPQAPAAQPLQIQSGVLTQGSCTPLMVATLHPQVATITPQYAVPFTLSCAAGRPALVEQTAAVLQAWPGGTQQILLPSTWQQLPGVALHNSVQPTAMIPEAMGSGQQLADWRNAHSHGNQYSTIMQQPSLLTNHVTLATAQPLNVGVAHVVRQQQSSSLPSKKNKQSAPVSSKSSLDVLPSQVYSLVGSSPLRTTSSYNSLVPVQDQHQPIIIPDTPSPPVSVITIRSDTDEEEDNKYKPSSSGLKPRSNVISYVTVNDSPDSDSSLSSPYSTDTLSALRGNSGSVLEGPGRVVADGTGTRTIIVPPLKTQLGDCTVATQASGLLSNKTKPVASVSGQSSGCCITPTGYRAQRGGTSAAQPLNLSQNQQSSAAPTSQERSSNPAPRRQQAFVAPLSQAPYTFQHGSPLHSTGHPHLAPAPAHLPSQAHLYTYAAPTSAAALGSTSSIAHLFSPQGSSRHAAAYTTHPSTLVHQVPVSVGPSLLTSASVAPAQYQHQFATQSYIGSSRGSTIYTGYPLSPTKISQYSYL
Sequence of NTRK1 (human) (P04629 whole entry, looked up): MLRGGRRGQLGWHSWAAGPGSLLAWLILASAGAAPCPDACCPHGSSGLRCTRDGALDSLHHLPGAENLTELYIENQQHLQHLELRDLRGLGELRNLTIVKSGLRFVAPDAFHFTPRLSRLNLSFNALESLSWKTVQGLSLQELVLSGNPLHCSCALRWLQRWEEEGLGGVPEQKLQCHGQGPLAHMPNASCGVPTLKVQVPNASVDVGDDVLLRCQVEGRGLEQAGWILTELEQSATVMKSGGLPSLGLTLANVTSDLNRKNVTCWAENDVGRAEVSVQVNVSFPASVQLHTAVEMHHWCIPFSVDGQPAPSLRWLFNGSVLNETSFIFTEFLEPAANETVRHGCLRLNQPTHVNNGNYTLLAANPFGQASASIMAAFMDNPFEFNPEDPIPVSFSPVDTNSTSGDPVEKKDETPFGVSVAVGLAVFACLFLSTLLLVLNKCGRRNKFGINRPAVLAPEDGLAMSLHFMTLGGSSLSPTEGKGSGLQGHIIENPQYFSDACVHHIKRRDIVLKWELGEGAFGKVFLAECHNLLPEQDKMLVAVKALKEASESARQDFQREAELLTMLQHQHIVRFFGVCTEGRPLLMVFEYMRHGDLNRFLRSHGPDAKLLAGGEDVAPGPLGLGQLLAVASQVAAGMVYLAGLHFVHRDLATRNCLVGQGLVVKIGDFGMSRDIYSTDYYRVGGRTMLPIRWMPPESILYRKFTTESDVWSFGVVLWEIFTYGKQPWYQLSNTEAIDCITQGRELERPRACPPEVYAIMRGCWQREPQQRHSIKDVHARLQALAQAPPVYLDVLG
Sequence of STK11 (human) (Q15831 whole entry, looked up): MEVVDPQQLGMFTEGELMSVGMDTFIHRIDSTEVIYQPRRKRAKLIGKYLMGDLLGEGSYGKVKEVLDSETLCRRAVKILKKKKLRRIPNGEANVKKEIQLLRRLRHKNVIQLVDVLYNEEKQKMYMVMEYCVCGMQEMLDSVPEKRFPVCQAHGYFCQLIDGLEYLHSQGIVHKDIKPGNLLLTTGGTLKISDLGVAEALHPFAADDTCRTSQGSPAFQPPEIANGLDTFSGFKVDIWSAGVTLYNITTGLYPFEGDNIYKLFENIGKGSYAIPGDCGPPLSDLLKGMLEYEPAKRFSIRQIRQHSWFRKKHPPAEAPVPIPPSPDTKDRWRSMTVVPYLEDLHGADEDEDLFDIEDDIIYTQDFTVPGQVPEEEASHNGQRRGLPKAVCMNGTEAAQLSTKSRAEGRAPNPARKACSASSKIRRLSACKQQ
Sequence of CAMKK1 (human) (Q8N5S9 whole entry, looked up): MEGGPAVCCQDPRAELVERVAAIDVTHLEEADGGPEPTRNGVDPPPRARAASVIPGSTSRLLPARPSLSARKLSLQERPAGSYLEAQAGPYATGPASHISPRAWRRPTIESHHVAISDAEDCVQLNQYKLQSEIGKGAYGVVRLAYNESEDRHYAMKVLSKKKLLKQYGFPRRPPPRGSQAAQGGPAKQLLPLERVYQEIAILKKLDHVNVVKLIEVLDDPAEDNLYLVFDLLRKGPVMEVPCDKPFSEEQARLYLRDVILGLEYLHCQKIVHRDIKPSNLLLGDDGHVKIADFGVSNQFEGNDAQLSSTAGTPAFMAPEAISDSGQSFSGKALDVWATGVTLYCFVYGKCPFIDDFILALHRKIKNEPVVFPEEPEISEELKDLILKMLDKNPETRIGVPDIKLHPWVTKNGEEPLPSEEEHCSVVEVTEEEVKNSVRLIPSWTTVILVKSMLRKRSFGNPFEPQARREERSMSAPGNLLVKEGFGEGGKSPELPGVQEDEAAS
Sequence of DAPK2 (human) (Q9UIK4 whole entry, looked up): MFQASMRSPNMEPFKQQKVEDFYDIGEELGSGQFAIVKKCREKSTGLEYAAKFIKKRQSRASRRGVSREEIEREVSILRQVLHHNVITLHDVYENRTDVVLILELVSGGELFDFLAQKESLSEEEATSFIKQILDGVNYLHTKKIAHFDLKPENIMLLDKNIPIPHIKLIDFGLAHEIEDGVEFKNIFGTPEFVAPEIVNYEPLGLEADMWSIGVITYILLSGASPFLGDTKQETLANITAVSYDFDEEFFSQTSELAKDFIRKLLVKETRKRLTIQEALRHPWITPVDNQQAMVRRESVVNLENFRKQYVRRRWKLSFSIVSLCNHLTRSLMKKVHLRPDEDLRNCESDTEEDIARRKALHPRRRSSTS

`Cn1cnc2cc3c(Nc4cccc(Br)c4)ncnc3cc21` gave a residual activity (HIPK1 (human)) of 108%, a residual activity (MAPKAPK5 (human)) of 130% and a residual activity (PDGFRB (human)) of 99.7%. For the same molecule, the residual activity [1] was 112%, the residual activity (RPS6KA4 KD2 (human)) was 96.3% and the residual activity (PHKG2 (human)) was 103%. It also gave a residual activity (DSTYK (human)) of 97.5%, a residual activity (PIM3 (human)) of 104% and a residual activity (JAK2 JH1 JH2 (human)) of 103%. For the same molecule, the residual activity (BLK (human)) was 81%, the residual activity (DAPK2 (human)) was 92.5% and the residual activity (MAP2K1 (human)) was 113%. For the same molecule, the residual activity (ITK (human)) was 102%, the residual activity (FGFR1 (human)) was 89.6% and the residual activity (PDGFRA (human)) was 107%. The residual activity (FLT3 (human)) was 33.4%, the residual activity (MAPK3 (human)) was 109% and the residual activity (PAK4 (human)) was 105%. The residual activity (CDK5 CDK5R1 p25 (human)) was 88%, the residual activity (JAK3 JH1 JH2 (human)) was 106% and the residual activity (PTK2 (human)) was 108%. It also gave a residual activity (GRK7 (human)) of 106%, a residual activity (TXK (human)) of 86.7% and a residual activity (PRKCE (human)) of 87.8%. It also gave a residual activity (NTRK1 (human)) of 90.8%, a residual activity (CAMK2B (human)) of 102% and a residual activity (MELK (human)) of 89%. It also gave a residual activity (PAK3 (human)) of 98.5%, a residual activity (CAMKK1 (human)) of 107% and a residual activity (FES (human)) of 101%. It also gave a residual activity (CDK2 CCNA2 (human)) of 90.1%, a residual activity (LIMK1 (human)) of 99% and a residual activity (SLK (human)) of 67.8%. It also gave a residual activity (AKT1 (human)) of 89.1%, a residual activity (MAPKAPK2 (human)) of 104% and a residual activity (CSNK1G3 (human)) of 88.1%. For the same molecule, the residual activity (PRKD2 (human)) was 82.6%, the residual activity (STK11 (human)) was 91.1% and the residual activity (DDR2 (human)) was 102%. It also gave a residual activity (TEC (human)) of 123%, a residual activity (RPS6KA5 KD2 (human)) of 93.5% and a residual activity (PDPK1 (human)) of 98.8%.
For `CCN(CC)CCCCN1c2ccccc2Oc2ccc(Cl)cc21`, the residual activity (HIPK1 (human)) was 106%, the residual activity (MAPKAPK5 (human)) was 95.9% and the residual activity (PDGFRB (human)) was 103%. It also gave a residual activity [1] of 96.7%, a residual activity (RPS6KA4 KD2 (human)) of 80.8% and a residual activity (PHKG2 (human)) of 110%. It also gave a residual activity (DSTYK (human)) of 106%, a residual activity (PIM3 (human)) of 37.8% and a residual activity (JAK2 JH1 JH2 (human)) of 104%. The residual activity (BLK (human)) was 106%, the residual activity (DAPK2 (human)) was 99% and the residual activity (MAP2K1 (human)) was 98.1%. The residual activity (ITK (human)) was 101%, the residual activity (FGFR1 (human)) was 105% and the residual activity (PDGFRA (human)) was 102%. For the same molecule, the residual activity (FLT3 (human)) was 99%, the residual activity (MAPK3 (human)) was 111% and the residual activity (PAK4 (human)) was 104%. For the same molecule, the residual activity (CDK5 CDK5R1 p25 (human)) was 91%, the residual activity (JAK3 JH1 JH2 (human)) was 106% and the residual activity (PTK2 (human)) was 108%. For the same molecule, the residual activity (GRK7 (human)) was 96.2%, the residual activity (TXK (human)) was 101% and the residual activity (PRKCE (human)) was 109%. For the same molecule, the residual activity (NTRK1 (human)) was 99.8%, the residual activity (CAMK2B (human)) was 107% and the residual activity (MELK (human)) was 95.3%. For the same molecule, the residual activity (PAK3 (human)) was 116%, the residual activity (CAMKK1 (human)) was 116% and the residual activity (FES (human)) was 99.8%. For the same molecule, the residual activity (CDK2 CCNA2 (human)) was 98.7%, the residual activity (LIMK1 (human)) was 94.3% and the residual activity (SLK (human)) was 105%. It also gave a residual activity (AKT1 (human)) of 112%, a residual activity (MAPKAPK2 (human)) of 97.2% and a residual activity (CSNK1G3 (human)) of 78.3%. The residual activity (PRKD2 (human)) was 105%, the residual activity (STK11 (human)) was 94.4% and the residual activity (DDR2 (human)) was 99.4%. It also gave a residual activity (TEC (human)) of 157%, a residual activity (RPS6KA5 KD2 (human)) of 107% and a residual activity (PDPK1 (human)) of 111%.
With `Cn1nc2c3c(cccc31)C(=O)c1ccccc1-2` the residual activity (HIPK1 (human)) was 112%, the residual activity (MAPKAPK5 (human)) was 94.5% and the residual activity (PDGFRB (human)) was 100%. It also gave a residual activity [1] of 89.4%, a residual activity (RPS6KA4 KD2 (human)) of 105% and a residual activity (PHKG2 (human)) of 95.4%. It also gave a residual activity (DSTYK (human)) of 101%, a residual activity (PIM3 (human)) of 76.8% and a residual activity (JAK2 JH1 JH2 (human)) of 95.9%. The residual activity (BLK (human)) was 106%, the residual activity (DAPK2 (human)) was 104% and the residual activity (MAP2K1 (human)) was 86.3%. The residual activity (ITK (human)) was 88.3%, the residual activity (FGFR1 (human)) was 99.5% and the residual activity (PDGFRA (human)) was 97.6%. It also gave a residual activity (FLT3 (human)) of 59.3%, a residual activity (MAPK3 (human)) of 98.9% and a residual activity (PAK4 (human)) of 90.4%. It also gave a residual activity (CDK5 CDK5R1 p25 (human)) of 92.2%, a residual activity (JAK3 JH1 JH2 (human)) of 107% and a residual activity (PTK2 (human)) of 92.8%. The residual activity (GRK7 (human)) was 113%, the residual activity (TXK (human)) was 92% and the residual activity (PRKCE (human)) was 95.7%. For the same molecule, the residual activity (NTRK1 (human)) was 95%, the residual activity (CAMK2B (human)) was 95.3% and the residual activity (MELK (human)) was 83.6%. It also gave a residual activity (PAK3 (human)) of 101%, a residual activity (CAMKK1 (human)) of 102% and a residual activity (FES (human)) of 94.4%. For the same molecule, the residual activity (CDK2 CCNA2 (human)) was 105%, the residual activity (LIMK1 (human)) was 97.1% and the residual activity (SLK (human)) was 103%. The residual activity (AKT1 (human)) was 99.1%, the residual activity (MAPKAPK2 (human)) was 102% and the residual activity (CSNK1G3 (human)) was 81.4%. It also gave a residual activity (PRKD2 (human)) of 77%, a residual activity (STK11 (human)) of 87.7% and a residual activity (DDR2 (human)) of 95.1%. It also gave a residual activity (TEC (human)) of 102%, a residual activity (RPS6KA5 KD2 (human)) of 100% and a residual activity (PDPK1 (human)) of 94.5%.
